Entries after “also recorded” stand apart in the source; their conditions may differ. Read-outs that look alike come from different tables or passages of the source.
Columns and labels:
hind limb lymphedema = test: Hind limb lymphedema model, paw thickness (implantable pellet); type: in vivo, mouse; details: for paw swelling, mean difference compared to control animals: implantable pellet 100 μg 9-cis RA, 30-day release
Protocol: All experiments were performed in accordance with the statutes from The Guide for the Care and Use of Laboratory Animals (National Research Council, 8th ed, 2011), the Animal Welfare Act, and other Federal regulations. The was approved by the University of Southern California Institutional Animal Care and Use Committee. Male and female Prox-1 green fluorescent protein (GFP) transgenic mice, 12-16 weeks old, weighing 20-30 g were bred within the University of Southern California animal facility. This GFP-expressing lymphatic reporter mouse was used because it conveniently allowed for the visualization of lymphatic vessels and other Prox1-expressing tissue under fluorescence microscopy, and facilitated the immunohistochemical staining of lymphatic vessels using anti-GFP primary antibody.
Under isoflurane-inhaled anesthesia, the lymphatic injury protocol was used on all experimental mice to induce hind limb lymphedema. This consisted of hind limb lymph node dissection followed by adjuvant radiation therapy. Using a dissecting microscope, a circumferential intradermal incision was made around the thigh, after which the ipsilateral inguinal fat pad, containing the inguinal lymph nodes, and ipsilateral popliteal lymph node were removed, as previously described. Visualization of the inguinal and popliteal lymphatics was facilitated by the injection of methylene blue dye on the dorsum of the paw and by the use of a green fluorescent microscope. Skin sutures were placed in 7-8 mm gaps to reinforce discontinuity of dermal lymphatics. The surgical area was then irradiated using a clinically relevant dose of 27.5 Gy radiation delivered by an XRad 320 device over a period of 5 days (550 cGy per day), which is the human equivalent dose for mouse.
Pellets were placed within the surgical wound intraoperatively and sutured in place to the adductor muscles of the thigh. Treatment pellets were custom-manufactured by Innovative Research of America (Sarasota, FL) to contain 100 μg of 9-cis RA, released over a period of 30 days using a matrix-driven delivery system. The carrier-binder excipients of the pellet matrix were synthetic and non-toxic, and included cholesterol, lactose, celluloses, phosphates, and stearates.
Prior to surgery, all animals were sex-, age-, and weight-matched to eliminate confounding variables. Paw thickness, the primary outcome, was measured weekly using electronic calipers for a total of 6 weeks. Paw thickness was normalized for each animal by calculating percent change relative to the unaffected paw. Hind limbs were photographed using a Nikon D5000 digital SLR flash camera using fixed distances, focal length, background, and positioning.

tail lymphedema [1] = test: Indocyanine green lymphangiography of tail (intraperitoneal injection); type: in vivo, BALB/c mice; details: day 45; for ICG fluorescent intensity compared to control: 48 hours after injection
Protocol: On Day 45, animals were anesthetized using 2.5% isofluorane, and 5 μL of 2.5 mg/mL indocyanine green (ICG) was injected into the distal end of each animal's tail 15 minutes prior to imaging. The SPY Elite Fluorescence Imaging System (Novadaq Technologies, BC, Canada) was used to capture fluorescent images and heat maps of the tails at 0, 1, 2, 3, 6, 12, 24, and 48 hours following ICG injection. Capture conditions were kept constant throughout the trial. Fluorescent intensity of the tails at each time point was quantified using a previously described method for measuring cell fluorescence in ImageJ [4, 7]. Values were then recorded and plotted using GraphPad Prism 7. Percent change in fluorescent intensity from the peak fluorescent uptake at 6 hours was used to measure ICG clearance.

tail lymphedema [2] = test: Dermal and epidermal thickness, H&E stained tails; type: in vivo, BALB/c mice; details: 0.08 mg/kg daily i.p.; for mean epidermal tail thickness / dermal thickness: mean±standard error
Protocol: Tail specimens were collected on post-operative day 47. Specimens were harvested to include 1 cm proximal and 1 cm distal the wound, then divided to separate proximal and distal portions. Tails were inked to enable proper orientation, fixed in 10% neutral buffered formalin overnight, decalcified in 10% EDTA (pH: 7.3) for 6 days at 4° C., embedded in paraffin, sectioned at 3-5 μm, then stained with hematoxylin and eosin (H&E) or via immunohistochemical techniques. In summary, sections were deparaffinized, underwent antigen retrieval with sodium citrate buffer, incubated overnight with the primary antibody (1:200) at 4° C., washed, incubated with a suitable secondary antibody (1:200), then stained with immPACT DAB Substrate (Vector Laboratories, Inc, Burlingame, CA) and counterstained with Delafield Hematoxylin (Sigma-Aldrich, USA) diluted 1:4. Podoplanin (clone 8.1.1; sc-53533, Santa Cruz Biotechnology, Inc., Dallas, TX) was used to immunohistochemically mark lymphatics in paraffin embedded tail sections.
Slides were counterstained with hematoxylin and mounted. All images were obtained with a Keyence BZ-X700 microscope (Itasca, IL) and epidermal and dermal thickness was measured using ImageJ (National Institutes of Health, Betheseda, MD). The thickest part of the epidermis and dermis was measured in 5 high-power fields per section, as previously described. On the immunohistochemically stained slides, podoplanin stained vessels in the dermis and subcutis were quantified in ImageJ. Two high-power fields per section were randomly selected and then analyzed by a blinded reviewer. The reviewer scored the number of podoplanin stained vessels and the area (mm^2) of the dermis and subcutaneous tissue in each image. Lymphatic vessel density was calculated from the absolute lymphatic number normalized to the dermal and subcutaneous area measured (number of lymphatics/mm^2).^2 For the immunofluorescent stained slides, LYVE-1 stained vessels were quantified with ImageJ, to assess included lymphatic density, lymphatic vessel width, inter-lymphatic vessel distance, branching points, loops and blind-ended sacs.

diaphragmatic lymphatics = test: India ink staining of the diaphragm; type: in vivo, BALB/c mice; details: 0.08 mg/kg daily i.p.
Protocol: On post-operative day 47, each animal was intraperitoneally injected with 5 cc of India Ink which was diluted 2-folds with distilled water. Ten minutes after the injection of India ink, the animal was euthanized and the diaphragms were harvested in their entirety. The specimens were then rinsed with running tap water for 1 minute and mounted on the stage of a dissecting microscope equipped with a digital camera. The whole-mount specimen, exclusive of the central tendon, was then analyzed for the passive lymphatic absorption of India ink utilizing the percent stained area on ImageJ.

tail lymphedema [3] = test: Oral administration, tail lymphedema, lymphatic clearance; type: in vivo, BALB/c mice; details: oral gavage for 6 weeks
Protocol: (§1) Oral administration experiments were performed on 30 adult BALB/c mice, 12 to 14 weeks old, and weighing between 21 and 30 g. Surgical excision of lymphatic vessels at 20-mm from the base of the tail was performed in order to induce secondary lymphedema. Mice receive 9-cis RA dissolved in sunflower oil via oral gavage for 6 weeks in accordance to the dosing regimes in Table 3.

[4] = mouse, in vivo, po
Protocol: as §1

postsurgical lymphedema = details: daily intraperitoneal injections 0.08 mg/kg; earlier work [13]; cited from earlier work
[5] = system: lymphatic endothelial cell; details: in vitro; earlier work [12,13]; cited from earlier work

## CC1=C(/C=C/C(C)=C\C=C\C(C)=C\C(=O)O)C(C)(C)CCC1 [9-cis RA, 9-cis retinoic acid]
Hind limb lymphedema; postoperative week 3
  paw swelling, mean difference compared to control animals: 7%
Hind limb lymphedema; postoperative week 4
  paw swelling, mean difference compared to control animals: 12%
Hind limb lymphedema; postoperative week 5
  paw swelling, mean difference compared to control animals: 9%
Hind limb lymphedema; postoperative week 6
  paw swelling, mean difference compared to control animals: 11%
Hind limb lymphedema; implantable pellet, between time points over 6 weeks
  change in paw swelling/thickness within the treatment group over time: no significant differences in paw swelling are observed between time points
Tail lymphedema [1]; 24 hours after ICG injection, all treatment groups
  percent change of ICG fluorescent intensity compared to control: significant decrease in the percent change of fluorescent intensity compared to the control
Tail lymphedema [1]; 7-day group
  ICG fluorescent intensity compared to control: no longer significant from the control
Tail lymphedema [1]; 14-day, 42-day and 7-day delayed groups
  ICG fluorescent intensity compared to control: significant decrease in fluorescent intensity
Tail lymphedema [2]; 7-day group
  dermal thickening compared to control: no significant effect on tail lymphedema or dermal thickening
  mean epidermal tail thickness: 109.2±10.21 μm
Tail lymphedema [2]; 14-day group
  dermal thickness: 352.4±21.29 μm
  mean epidermal tail thickness: 52.07±2.616 μm
Tail lymphedema [2]; 45-day group
  dermal thickness: 525.2±25.09 μm
  mean epidermal tail thickness: 83.14±8.099 μm
Tail lymphedema [2]; delay group
  dermal thickness: 502±30.17 μm
  mean epidermal tail thickness: 73.51±10.94 μm
Diaphragmatic lymphatics; 14-day group
  percent stained area of diaphragms (India ink) vs vehicle control: marginal significance
Diaphragmatic lymphatics; groups other than 14-day
  percent stained area of diaphragms (India ink) vs vehicle control: essentially no differences
Tail lymphedema [3]; high dose 30 mg/kg
  lymphatic clearance: improves lymphatic clearance
Tail lymphedema [3]; low dose 10 mg/kg
  lymphatic clearance: improves lymphatic clearance
[4]; 10 mg/kg
  systemic toxicity by liver and kidney function tests (AST, ALT, BUN): minimal systemic toxicity
[4]; 30 mg/kg
  systemic toxicity by liver and kidney function tests (AST, ALT, BUN): minimal systemic toxicity
Postsurgical lymphedema
  prevention of postsurgical lymphedema: significantly prevents development of lymphedema; also recorded: prevents postsurgical lymphedema
[5]
  lymphatic endothelial cell proliferation, migration and vessel formation: significantly increased
